Converted amounts (≈) assume the structure as drawn. Like-named read-outs stand apart in the source and are kept apart here. Peptide text beside a SMILES is read from it.
Columns and labels:
E. cloacae 4080 = test: Bacterial killing, colony formation (CFU); assay type: cell-based, Enterobacter cloacae
Experimental: The number of CFU of E. cloacae 4080 were quantified as a function of time of incubation with a 2 µM concentration of the individual peptides. In the reactions with kanamycin (Kan), 25 µg/ml of kanamycin sulfate was used. […] The initial inoculum was 10^6 CFU in LB.

K. pneumoniae = test: Bacterial killing, colony formation (CFU); assay type: cell-based, Klebsiella pneumoniae
Experimental: A total of 1 × 10^5 CFU of the bacteria were incubated for 30 min with the concentration of peptide or colistin shown. Approximately 500 CFU was then added as a droplet onto nonselective media for 18 h. […] The number shown is the median value of three or four independent assays. The number in parentheses is the standard deviation of all of the assays. […] (C) Quantitative analysis of the viable colonies formed by colistin-resistant bacteria. […] The numbers are the means of three independent assays, and those in parentheses are the range for 1 standard deviation.

V. fischeri = test: Bacterial killing, colony formation (CFU); assay type: cell-based; conditions: 2 µM peptide, 30 min incubation
V. angustum = test: Bacterial killing, colony formation (CFU); assay type: cell-based; conditions: 2 µM peptide, 30 min incubation
E. coli = assay type: cell-based, Escherichia coli; conditions: 2 µM peptide
Experimental: A total of 1 × 10^5 CFU of the bacteria were incubated for 30 min with the concentration of peptide or colistin shown. Approximately 500 CFU was then added as a droplet onto nonselective media for 18 h. […] The number shown is the median value of three or four independent assays. The number in parentheses is the standard deviation of all of the assays. […] The numbers are the means of three independent assays, and those in parentheses are the range for 1 standard deviation.
Incubation time: 0 min 5 min 30 min

TLR9 = TLR9 signaling: IL-6 ELISA in BEAS-2B cells treated with CpG DNA ODN2006; assay type: cell-based, human; conditions: ODN2006 0.5 nM, peptide 2 µM, control cells = 100%, mean (SD) of minimum three assays
Experimental: (§1) Eight cathelicidins produced by eight mammals were selected for an initial examination (Fig. 1A). […] However, the number of charged residues and the lengths of the disordered residues differed (Fig. 1B). The peptides were added to BEAS-2B cells, a human lung epithelial cell line that expresses multiple TLRs and can release proinflammatory cytokines in response to their activation and the enhancement of cytokine release by LL-37 ([15]). BEAS-2B cells treated with the TLR3 agonist poly(I⋅C) and 2 µM LL-37 increased interleukin 6 (IL-6) production by threefold. All of the nonhuman cathelicidins tested had lower TLR3 signaling compared to LL-37 (Fig. 1B). The lack of TLR3 signaling by the nonhuman cathelicidins was due to the inability to use the formyl peptide receptor-like receptor 1 to endocytose the double-stranded RNA (dsRNA)−LL-37 complex and deliver the poly(I⋅C) to TLR3 in endosomes ([17]) (see Fig. S1 in the supplemental material). All of the nonhuman cathelicidins also had reduced activation of TLR9 compared to LL-37 (Fig. 1B).
(§2) FIG 1 Cathelicidins from animals have distinct abilities to act on Toll-like receptor signaling. (A) A phylogenetic relationship of cathelicidins from mammals. The figure is derived from results of Zanetti et al. (12). (B) Names, lengths, and sequences of cathelicidin peptides and their ability to affect Toll-like receptor signaling. The peptide lengths are shown in the numbers of amino acids (AAs). The residues predicted to form an α-helix are underlined with an arrow. The basic, acidic, and aromatic residues are colored blue, red, and green, respectively. TLR signaling was assessed by the amount of IL-6 cytokine produced in BEAS-2B cells. IL-6 levels were quantified using enzyme-linked immunosorbent assay (ELISA), and the level of IL-6 in the control cells is normalized to 100%. The peptides were added to the cells at a final concentration of 2 μM. Each result is the mean of a minimum of three independent assays, and the standard deviations (SD) are shown in parentheses.
(§3) The concentration of IL-6 secreted into the cell medium was quantified using the OptEIA kit (BD Biosciences, San Jose, CA). A typical assay used 1 × 10^4 BEAS-2B cells/well grown for 24 h in flat-bottom 96-well plates. Poly(I⋅C) was added to a final concentration of 0.13 µg/ml for 24 h. ODN2006 was added to 0.5 nM. Lipopolysaccharides were used at 0.5 µg/ml. All data shown are the means and ranges of 1 standard error for a minimum of three independent samples. Data sets were compared using the Student t test calculated with GraphPad Prism 5 software.

TLR3 = TLR3 signaling: IL-6 ELISA in BEAS-2B cells treated with poly(I·C); assay type: cell-based, human
Experimental: as §1, §2, §3

TLR4 = TLR4 signaling: IL-6 ELISA in BEAS-2B cells treated with LPS; assay type: cell-based, human
Excerpt: as §2
LL-37 at 2 µM final concentration reduced IL-6 production to approximately half that of the untreated cells (Fig. 1B).
as §3

V. vulnificus = assay type: cell-based, Vibrio vulnificus; conditions: 5 min with 100 µM ampicillin or 4 µM SMAP-29D, relative to PBS control cells
Experimental: (§4) The number of CFU of E. cloacae 4080 were quantified as a function of time of incubation with a 2 µM concentration of the individual peptides. In the reactions with kanamycin (Kan), 25 µg/ml of kanamycin sulfate was used. […] The initial inoculum was 10^6 CFU in LB. […] (D to F) Fluorescence microscopy of V. vulnificus cells. […] An enlarged image of a single cell is highlighted in the boxed region. White arrows denote bulges extending from the bacterial membrane. […] Bacterial DNA is stained with DAPI (blue). […] The fate of cellular cytoplasmic contents was tracked following expression of a FliM-tdTomato fusion protein (red).

V. cholerae = assay type: cell-based, Vibrio cholerae; conditions: 5 min with 100 µM ampicillin or 4 µM SMAP-29D, relative to PBS control cells
Experimental: as §4

[1] = broth microdilution, CAMHB, at least three independent assays
[2] = 2 µM peptide, 30 min incubation

Experimental for 19 Gram-negative strains: (A) Sequences of the cathelicidins, the numbers of bacterial strains killed, and hRBC lysis by the cathelicidins. […] The bacterial species tested are Klebsiella pneumoniae (K. p.), Serratia marcescens (S. m.), Enterobacter cloacae (E. cl.), Escherichia coli (E. c.), and Pseudomonas aeruginosa (P. a.). MICs were determined by the microdilution assay. […] The results are the median values of at least three independent assays.
We tested a panel of cathelicidins for inhibiting growth of 19 Gram-negative strains from the family Enterobacteriaceae and the nonfermentative bacteria. The species tested were Enterobacter cloacae ([2]), Escherichia coli ([5]), Klebsiella pneumoniae ([4]), Pseudomonas aeruginosa ([4]), and Serratia marcescens ([4]). All of the strains selected have been characterized for their antibiotic resistance profiles.
(§5) Antimicrobial activity was determined using the broth microdilution method based on the guidelines of the Clinical and Laboratory Standards Institute (CLSI) ([39]), using cation-adjusted Mueller-Hinton broth (CAMHB) as the testing medium. Reference Gram-positive and Gram-negative bacteria were tested, including both enteric and Pseudomonas aeruginosa strains. Each MIC was determined in at least three independent assays.
Experimental for E. faecalis: as §5
Experimental for Enterobacter cloacae: (§6) The bacterial species tested are Klebsiella pneumoniae (K. p.), Serratia marcescens (S. m.), Enterobacter cloacae (E. cl.), Escherichia coli (E. c.), and Pseudomonas aeruginosa (P. a.). MICs were determined by the microdilution assay. […] The results are the median values of at least three independent assays.
as §5
Experimental for Escherichia coli: as §6, §5
Experimental for Klebsiella pneumoniae: as §6, §5
Experimental for Pseudomonas aeruginosa: as §6, §5
Experimental for S. aureus: as §5
Experimental for Serratia marcescens: as §6, §5

## CC[C@H](C)[C@H](NC(=O)[C@@H](NC(=O)[C@@H]1CCCN1C(=O)[C@H](CO)NC(=O)[C@H](CC(C)C)NC(=O)[C@H](CCCCN)NC(=O)[C@H](CCCCN)NC(=O)[C@H](Cc1ccccc1)NC(=O)[C@H](CC(C)C)NC(=O)[C@H](CCCCN)NC(=O)[C@H](CCCCN)NC(=O)[C@H](CC(C)C)NC(=O)[C@H](CCCCN)NC(=O)[C@H](CCCCN)NC(=O)[C@H](CCCNC(=N)N)NC(=O)[C@H](CC(C)C)NC(=O)[C@H](CCCNC(=N)N)NC(=O)[C@H](CCCCN)NC(=O)[C@H](Cc1ccccc1)NC(=O)[C@H](CCCNC(=N)N)NC(=O)CN)C(C)C)C(=O)N1CCC[C@H]1C(=O)N[C@@H](CC(C)C)C(=O)N[C@@H](CC(C)C)C(=O)N[C@@H](Cc1c[nH]cn1)C(=O)N[C@@H](CC(C)C)C(=O)NCC(=O)O [BMAP-27B] (H-GRFKRLRKKLKKLFKKLSPVIPLLHLG-OH)
S. aureus
  MIC S. aureus 25923: 32 µg/mL (≈ 9.95 µM)
  MIC S. aureus 29213: 32 µg/mL (≈ 9.95 µM)
Klebsiella pneumoniae
  # strains inhibited at 16 µg/ml peptide K. p.: 4/4
Pseudomonas aeruginosa
  # strains inhibited at 16 µg/ml peptide P. a.: 4/4
  MIC P. aeruginosa 4083: 4 µg/mL (≈ 1.24 µM)
  MIC P. aeruginosa PAO1: 4 µg/mL (≈ 1.24 µM)
Pseudomonas aeruginosa; [1]
  MIC P. aeruginosa PAO1 ΔOprD: 4 µg/mL (≈ 1.24 µM)
19 Gram-negative strains
  No. of strains inhibited at 16 µg/ml/total no. of strains: 19/19
Serratia marcescens
  # strains inhibited at 16 µg/ml peptide S. m.: 3/3
E. faecalis
  MIC E. faecalis 29212: >32 µg/mL
  MIC E. faecalis 51299: >32 µg/mL
E. cloacae 4080
  Fold redu. from To, En. cloacae 4080, 5 min: 2400
  Fold redu. from To, En. cloacae 4080, 30 min: > 19,200
E. cloacae 4080; 2 µM peptide (sub-heading; title says 1 µM), 5 min incubation
  CFU/ml (SD) En. cloacae 4080, 5 min: < 200 CFU/ml
E. cloacae 4080; 2 µM peptide, 120-min incubation, E. cloacae
  reduction in CFU, 120 min: > 4 log10 unit
E. cloacae 4080; [2]
  CFU/ml (SD) En. cloacae 4080, 30 min: < 25 CFU/ml
Escherichia coli
  # strains inhibited at 16 µg/ml peptide E. c.: 6/6
Escherichia coli; [1]
  MIC E. coli MC4100: 4 µg/mL (≈ 1.24 µM)
Enterobacter cloacae
  # strains inhibited at 16 µg/ml peptide E. cl.: 2/2
Enterobacter cloacae; [1]
  MIC E. cloacae 4092: 4 µg/mL (≈ 1.24 µM)
K. pneumoniae; 2 µM peptide, 5 min incubation
  CFU/ml (SD) K. pneumonia 8893, 5 min: < 200 CFU/ml
  Fold redu. from To, K. pneumonia 8893, 5 min: 1050 fold
  Fold redu. from To, K. pneumonia C-2, 5 min: 25 fold
K. pneumoniae; [2]
  CFU/ml (SD) K. pneumonia 8893, 30 min: < 25 CFU/ml
  CFU/ml (SD) K. pneumonia C-2, 30 min: 50 CFU/ml
  Fold redu. from To, K. pneumonia 8893, 30 min: > 8,400 fold
  Fold redu. from To, K. pneumonia C-2, 30 min: > 13,000 fold
K. pneumoniae; 2 µM, Fig. 5C (K. pneumoniae 59) and data not shown
  reduction in CFU, colistin-resistant K. pneumoniae: > 2 log10 unit
V. fischeri
  CFU/ml (SD) V. fischeri, 30 min: < 20 CFU/ml
  Fold redu. from To, V. fischeri, 30 min: > 48,000 fold
V. angustum
  CFU/ml (SD) V. angustum, 30 min: 27 CFU/ml
  Fold redu. from To, V. angustum, 30 min: > 88,460 fold
E. coli; 5 min incubation
  CFU/ml (SD) E. coli IU-342, 5 min: < 200 CFU/ml
  Fold redu. from To, E. coli IU-342, 5 min: 850 fold
E. coli; 30 min incubation
  CFU/ml (SD) E. coli IU-342, 30 min: < 25 CFU/ml
  Fold redu. from To, E. coli IU-342, 30 min: > 6,800 fold

## CC[C@H](C)[C@H](NC(=O)[C@H](CCCCN)NC(=O)[C@H](CCC(=O)O)NC(=O)[C@H](CCCCN)NC(=O)[C@H](CO)NC(=O)[C@H](CCCCN)NC(=O)[C@H](CCCNC(=N)N)NC(=O)[C@H](Cc1ccccc1)NC(=O)[C@H](Cc1ccccc1)NC(=O)[C@H](CC(=O)O)NC(=O)CNC(=O)[C@H](CC(C)C)NC(=O)[C@@H](N)CC(C)C)C(=O)NCC(=O)N[C@@H](CCCCN)C(=O)N[C@@H](CCC(=O)O)C(=O)N[C@@H](Cc1ccccc1)C(=O)N[C@@H](CCCCN)C(=O)N[C@@H](CCCNC(=N)N)C(=O)N[C@H](C(=O)N[C@H](C(=O)N[C@@H](CCC(N)=O)C(=O)N[C@@H](CCCNC(=N)N)C(=O)N[C@H](C(=O)N[C@@H](CCCCN)C(=O)N[C@@H](CC(=O)O)C(=O)N[C@@H](Cc1ccccc1)C(=O)N[C@@H](CC(C)C)C(=O)N[C@@H](CCCNC(=N)N)C(=O)N[C@@H](CC(N)=O)C(=O)N[C@@H](CC(C)C)C(=O)N[C@H](C(=O)N1CCC[C@H]1C(=O)N[C@@H](CCCNC(=N)N)C(=O)N[C@H](C(=O)N[C@@H](CCC(=O)O)C(=O)N[C@@H](CO)C(=O)O)[C@@H](C)O)C(C)C)[C@@H](C)CC)C(C)C)[C@@H](C)CC [LL-37]
Klebsiella pneumoniae
  # strains inhibited at 16 µg/ml peptide K. p.: 0/4
Klebsiella pneumoniae; [1]
  MIC K. pneumoniae 4110: >32 µg/mL
  MIC K. pneumoniae ATCC 700603: >32 µg/mL
  MIC K. pneumoniae C2: >32 µg/mL
  MIC K. pneumoniae OC8893: >32 µg/mL
Pseudomonas aeruginosa
  # strains inhibited at 16 µg/ml peptide P. a.: 0/4
Pseudomonas aeruginosa; [1]
  MIC P. aeruginosa 4083: 32 µg/mL (≈ 7.12 µM)
  MIC P. aeruginosa ATCC 27853: >32 µg/mL
  MIC P. aeruginosa PAO1: 32 µg/mL (≈ 7.12 µM)
  MIC P. aeruginosa PAO1 ΔOprD: 32 µg/mL (≈ 7.12 µM)
19 Gram-negative strains
  No. of strains inhibited at 16 µg/ml/total no. of strains: 0/19
19 Gram-negative strains; statement over all 19 Gram-negative strains
  MIC for any/all of the 19 bacterial strains: at least 32 µg/ml
Serratia marcescens
  # strains inhibited at 16 µg/ml peptide S. m.: 0/3
Serratia marcescens; [1]
  MIC S. marcescens 4075: >32 µg/mL
  MIC S. marcescens 4101: >32 µg/mL
  MIC S. marcescens 4104: >32 µg/mL
  MIC S. marcescens 7553: >32 µg/mL
TLR9
  % IL-6 produced compared to controls (SD) TLR9: 175(15) %
TLR3; poly(I·C) […], peptide 2 µM, ELISA, control cells = 100%, mean (SD) of minimum three assays
  % IL-6 produced compared to controls (SD) TLR3: 389(16) %
TLR3; poly(I·C), 2 µM peptide
  increase of IL-6 production: threefold
Escherichia coli
  # strains inhibited at 16 µg/ml peptide E. c.: 0/6
Escherichia coli; [1]
  MIC E. coli ATCC 25922: 32 µg/mL (≈ 7.12 µM)
  MIC E. coli ATCC 35218: 32 µg/mL (≈ 7.12 µM)
  MIC E. coli IU0342: 32 µg/mL (≈ 7.12 µM)
  MIC E. coli J53 AzideR: >32 µg/mL
  MIC E. coli MC4100: >32 µg/mL
Enterobacter cloacae
  # strains inhibited at 16 µg/ml peptide E. cl.: 0/2
Enterobacter cloacae; [1]
  MIC E. cloacae 4080: 32 µg/mL (≈ 7.12 µM)
  MIC E. cloacae 4092: >32 µg/mL
TLR4; BEAS-2B cells, LPS 0.5 µg/ml, peptide 2 µM, ELISA, control cells = 100%, mean (SD) of minimum three assays
  % IL-6 produced compared to controls (SD) TLR4: 55(3) %
TLR4; LPS-induced TLR4 signaling, 2 µM peptide
  IL-6 production relative to untreated cells: approximately half

## CC1(C)S[C@@H]2[C@H](NC(=O)[C@H](N)c3ccccc3)C(=O)N2[C@H]1C(=O)O [ampicillin]
V. vulnificus
  reduction in CFU, V. vulnificus: less than 1 log10 unit
V. cholerae
  reduction in CFU, V. cholerae: less than 1 log10 unit
